IC50 data for one compound are collected here from publication PMC8271486, “Assessment of Antidiabetic Activity of the Shikonin by Allosteric Inhibition of Protein-Tyrosine Phosphatase 1B (PTP1B) Using State of Art: An In Silico and In Vitro Tactics” (Molecules, 2021).

The assay deals with T1, Protein tyrosine phosphatase 1B (PTP1B) (Homo sapiens, UniProt P18031).
T1 construct: gene PTPN1
T1 sequence (P18031 1-435): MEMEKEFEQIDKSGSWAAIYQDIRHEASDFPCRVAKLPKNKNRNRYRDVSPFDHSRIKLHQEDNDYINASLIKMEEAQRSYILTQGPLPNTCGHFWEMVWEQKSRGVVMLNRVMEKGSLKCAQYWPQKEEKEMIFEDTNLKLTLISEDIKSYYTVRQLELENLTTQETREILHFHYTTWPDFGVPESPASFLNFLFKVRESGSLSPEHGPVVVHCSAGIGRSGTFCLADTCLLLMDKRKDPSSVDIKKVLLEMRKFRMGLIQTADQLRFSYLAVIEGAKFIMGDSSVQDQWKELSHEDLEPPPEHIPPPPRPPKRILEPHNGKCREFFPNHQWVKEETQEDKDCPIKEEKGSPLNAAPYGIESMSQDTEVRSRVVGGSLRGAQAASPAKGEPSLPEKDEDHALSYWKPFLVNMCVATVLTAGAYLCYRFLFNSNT
The assay is described as follows: pNPP hydrolysis assay ([…] nm) with human recombinant PTP1B; Dixon and Lineweaver-Burk kinetics. Type of assay: biochemical.

By IC50 is commonly meant the concentration at which inhibition is half-maximal. On to `CC(C)=CC[C@@H](O)C1=CC(=O)c2c(O)ccc(O)c2C1=O` [Shikonin, 5,8-dihydroxy-2-[(1R)-1-hydroxy-4-methylpent-3-enyl] naphthalene-1,4-dione], for which the IC50 worked out at 15.5 µM.
